Results taken from US20240025884A1 (Dong-A ST Co., Ltd., priority 2022, published 2024).

Molecular target: GCN2 (Homo sapiens (Human), UniProt Q9P2K8)
Assay: GCN2 Biochemical Assay (TR-FRET, GFP-eIF2S1 substrate phosphorylation)
Details: read-out: IC50 (GCN2 Inhibitory Activity)
How it was run: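 TR-FRET readout (Ex 340, Em 490/520 nm) after 2–3 h with Tb-labelled phospho-eIF2S1 antibody in stop mix, following a 70 min room-temperature kinase step. Reaction: in-house GCN2, GFP-eIF2S1, ATP, tRNA in Tris pH 7.5 (2× stocks 1.6 nM, 50 nM, 0.2 mM); compounds tested at 10 concentrations, with a phospho-substrate artifact counter-plate.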

Sequence of GCN2 (Q9P2K8 whole entry): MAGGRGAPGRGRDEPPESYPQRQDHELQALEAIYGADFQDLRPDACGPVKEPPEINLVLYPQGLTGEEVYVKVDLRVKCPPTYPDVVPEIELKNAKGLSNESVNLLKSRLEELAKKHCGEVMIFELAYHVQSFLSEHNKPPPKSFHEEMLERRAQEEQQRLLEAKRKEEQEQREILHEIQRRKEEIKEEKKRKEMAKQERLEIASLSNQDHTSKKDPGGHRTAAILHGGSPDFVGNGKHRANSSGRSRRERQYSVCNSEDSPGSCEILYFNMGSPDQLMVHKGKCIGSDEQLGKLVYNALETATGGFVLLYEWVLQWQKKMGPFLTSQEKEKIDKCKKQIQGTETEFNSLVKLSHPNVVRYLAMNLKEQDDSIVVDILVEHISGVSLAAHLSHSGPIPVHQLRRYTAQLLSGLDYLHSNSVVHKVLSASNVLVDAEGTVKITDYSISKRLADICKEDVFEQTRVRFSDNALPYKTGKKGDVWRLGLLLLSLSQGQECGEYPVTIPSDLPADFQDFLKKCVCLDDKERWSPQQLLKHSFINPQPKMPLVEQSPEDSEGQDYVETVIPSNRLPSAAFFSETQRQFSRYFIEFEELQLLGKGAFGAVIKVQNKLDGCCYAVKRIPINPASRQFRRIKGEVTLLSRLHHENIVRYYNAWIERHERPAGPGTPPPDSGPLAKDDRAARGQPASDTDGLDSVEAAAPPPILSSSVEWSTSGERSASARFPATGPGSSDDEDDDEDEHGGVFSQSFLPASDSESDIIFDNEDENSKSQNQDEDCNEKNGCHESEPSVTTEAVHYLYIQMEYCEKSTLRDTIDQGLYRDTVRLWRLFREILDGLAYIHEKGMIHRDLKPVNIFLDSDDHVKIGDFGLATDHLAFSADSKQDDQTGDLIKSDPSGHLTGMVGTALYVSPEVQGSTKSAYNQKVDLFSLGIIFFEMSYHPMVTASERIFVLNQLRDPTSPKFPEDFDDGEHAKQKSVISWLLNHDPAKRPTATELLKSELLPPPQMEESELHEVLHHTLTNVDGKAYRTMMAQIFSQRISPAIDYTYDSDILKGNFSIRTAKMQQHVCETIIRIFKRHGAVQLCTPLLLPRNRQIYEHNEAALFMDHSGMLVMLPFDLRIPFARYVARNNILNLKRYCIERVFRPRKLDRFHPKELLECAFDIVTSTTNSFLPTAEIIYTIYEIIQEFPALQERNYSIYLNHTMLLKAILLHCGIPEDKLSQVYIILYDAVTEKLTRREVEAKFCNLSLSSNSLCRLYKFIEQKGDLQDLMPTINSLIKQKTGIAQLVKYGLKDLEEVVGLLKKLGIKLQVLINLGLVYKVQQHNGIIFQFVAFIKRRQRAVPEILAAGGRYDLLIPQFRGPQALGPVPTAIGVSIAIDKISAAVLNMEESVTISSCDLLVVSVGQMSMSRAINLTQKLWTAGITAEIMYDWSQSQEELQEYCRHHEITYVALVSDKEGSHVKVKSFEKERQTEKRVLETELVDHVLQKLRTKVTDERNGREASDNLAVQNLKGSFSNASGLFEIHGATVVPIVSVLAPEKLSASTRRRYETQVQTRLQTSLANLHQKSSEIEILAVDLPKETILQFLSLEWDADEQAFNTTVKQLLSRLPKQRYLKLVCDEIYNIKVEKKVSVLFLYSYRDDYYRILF

Compared with `Cc1cnc(Nc2cc(C)n(C)n2)nc1-c1c[nH]c2c(NC(=O)CN3CC[C@H](Oc4cnc(-c5ccncc5)nc4)C3)cccc12` [Example 259, (S)-N-(3-(2-((1,5-dimethyl-1H-pyrazol-3-yl)amino)-5-methylpyrimidin-4-yl)-1H-indol-7-yl)-2-(3-((2-(pyridin-4-yl)pyrimidin-5-yl)oxy)pyrrolidin-1-yl)acetamide], `Cc1cnc(Nc2cc(C)n(C)n2)nc1-c1c[nH]c2c(N3Cc4cccnc4C3=O)cccc12` [Example 288, 6-(3-(2-((1,5-dimethyl-1H-pyrazol-3-yl)amino)-5-methylpyrimidin-4-yl)-1H-indol-7-yl)-5,6-dihydro-7H-pyrrolo[3,4-b]pyridin-7-one] is lower in IC50: 10 to 100 nM for the first, less than 10 nM for the second.

`Cc1cnc(Nc2cc(C)n(C)n2)nc1-c1c[nH]c2c(N3C(=O)c4ccccc4C3=O)cccc12` [Example 260, 2-(3-(2-((1,5-dimethyl-1H-pyrazol-3-yl)amino)-5-methylpyrimidin-4-yl)-1H-indol-7-yl)isoindoline-1,3-dione] and `Cc1cnc(Nc2cc(C)n(C)n2)nc1-c1c[nH]c2c(N3C(=O)c4cccc(F)c4C3=O)cccc12` [Example 261, 2-(3-(2-((1,5-dimethyl-1H-pyrazol-3-yl)amino)-5-methylpyrimidin-4-yl)-1H-indol-7-yl)-4-fluoroisoindoline-1,3-dione] cannot be ordered by IC50: less than 10 nM for the first, less than 10 nM for the second.

`Cc1cnc(Nc2cc(C)n(C)n2)nc1-c1c[nH]c2c(N3C(=O)c4cccc(Br)c4C3=O)cccc12` [Example 262, 4-bromo-2-(3-(2-((1,5-dimethyl-1H-pyrazol-3-yl)amino)-5-methylpyrimidin-4-yl)-1H-indol-7-yl)isoindoline-1,3-dione] and `Cc1cnc(Nc2cc(C)n(C)n2)nc1-c1c[nH]c2c(N3C(=O)c4cccc(O)c4C3=O)cccc12` [Example 263, 2-(3-(2-((1,5-dimethyl-1H-pyrazol-3-yl)amino)-5-methylpyrimidin-4-yl)-1H-indol-7-yl)-4-hydroxyisoindoline-1,3-dione] cannot be ordered by IC50: less than 10 nM for the first, less than 10 nM for the second.

`Cc1cnc(Nc2cc(C)n(C)n2)nc1-c1c[nH]c2c(N3C(=O)c4ccc([N+](=O)[O-])cc4C3=O)cccc12` [Example 264, 2-(3-(2-((1,5-dimethyl-1H-pyrazol-3-yl)amino)-5-methylpyrimidin-4-yl)-1H-indol-7-yl)-5-nitroisoindoline-1,3-dione] and `Cc1cnc(Nc2cc(C)n(C)n2)nc1-c1c[nH]c2c(N3Cc4ccc([N+](=O)[O-])cc4C3=O)cccc12` [Example 268, 2-(3-(2-((1,5-dimethyl-1H-pyrazol-3-yl)amino)-5-methylpyrimidin-4-yl)-1H-indol-7-yl)-6-nitroisoindolin-1-one] cannot be ordered by IC50: less than 10 nM for the first, less than 10 nM for the second.

`Cc1cnc(Nc2cc(C)n(C)n2)nc1-c1c[nH]c2c(N3C(=O)c4cccnc4C3=O)cccc12` [Example 265, 6-(3-(2-((1,5-dimethyl-1H-pyrazol-3-yl)amino)-5-methylpyrimidin-4-yl)-1H-indol-7-yl)-5H-pyrrolo[3,4-b]pyridine-5,7(6H)-dione] and `Cc1cnc(Nc2cc(C)n(C)n2)nc1-c1c[nH]c2c(N3Cc4c(Br)ccnc4C3=O)cccc12` [Example 286, 4-bromo-6-(3-(2-((1,5-dimethyl-1H-pyrazol-3-yl)amino)-5-methylpyrimidin-4-yl)-1H-indol-7-yl)-5,6-dihydro-7H-pyrrolo[3,4-b]pyridin-7-one] cannot be ordered by IC50: less than 10 nM for the first, less than 10 nM for the second.

`Cc1cnc(Nc2cc(C)n(C)n2)nc1-c1c[nH]c2c(N3Cc4c(Br)cccc4C3=O)cccc12` [Example 266, 4-bromo-2-(3-(2-((1,5-dimethyl-1H-pyrazol-3-yl)amino)-5-methylpyrimidin-4-yl)-1H-indol-7-yl)isoindolin-1-one] and `Cc1cnc(Nc2cc(C)n(C)n2)nc1-c1c[nH]c2c(N3Cc4c(N)cccc4C3=O)cccc12` [Example 272, 4-amino-2-(3-(2-((1,5-dimethyl-1H-pyrazol-3-yl)amino)-5-methylpyrimidin-4-yl)-1H-indol-7-yl)isoindolin-1-one] cannot be ordered by IC50: less than 10 nM for the first, less than 10 nM for the second.

First: Cc1cnc(Nc2cc(C)n(C)n2)nc1-c1c[nH]c2c(N3Cc4ccccc4C3=O)cccc12 [Example 267, 2-(3-(2-((1,5-dimethyl-1H-pyrazol-3-yl)amino)-5-methylpyrimidin-4-yl)-1H-indol-7-yl)isoindolin-1-one]
Second: Cc1cnc(Nc2cc(C)n(C)n2)nc1-c1c[nH]c2c(N3Cc4ccc(N)cc4C3=O)cccc12 [Example 269, 6-amino-2-(3-(2-((1,5-dimethyl-1H-pyrazol-3-yl)amino)-5-methylpyrimidin-4-yl)-1H-indol-7-yl)isoindolin-1-one]
The IC50 of the first is higher: 10 to 100 nM for the first, less than 10 nM for the second.

First: Cc1cnc(Nc2cc(C)n(C)n2)nc1-c1c[nH]c2c(N3Cc4cc(Br)ccc4C3=O)cccc12 [Example 270, 5-bromo-2-(3-(2-((1,5-dimethyl-1H-pyrazol-3-yl)amino)-5-methylpyrimidin-4-yl)-1H-indol-7-yl)isoindolin-1-one]
Second: Cc1cnc(Nc2cc(C)n(C)n2)nc1-c1c[nH]c2c(N3Cc4ccc(Br)cc4C3=O)cccc12 [Example 284, 6-bromo-2-(3-(2-((1,5-dimethyl-1H-pyrazol-3-yl)amino)-5-methylpyrimidin-4-yl)-1H-indol-7-yl)isoindolin-1-one]
The IC50 of the first is lower: less than 10 nM for the first, 10 to 100 nM for the second.

`Cc1cnc(Nc2cc(C)n(C)n2)nc1-c1c[nH]c2c(N3Cc4c(cccc4[N+](=O)[O-])C3=O)cccc12` [Example 271, 2-(3-(2-((1,5-dimethyl-1H-pyrazol-3-yl)amino)-5-methylpyrimidin-4-yl)-1H-indol-7-yl)-4-nitroisoindolin-1-one] and `Cc1cnc(Nc2cc(C)n(C)n2)nc1-c1c[nH]c2c(N3Cc4cccc([N+](=O)[O-])c4C3=O)cccc12` [Example 274, 2-(3-(2-((1,5-dimethyl-1H-pyrazol-3-yl)amino)-5-methylpyrimidin-4-yl)-1H-indol-7-yl)-7-nitroisoindolin-1-one] cannot be ordered by IC50: less than 10 nM for the first, less than 10 nM for the second.

Compared with `Cc1cnc(Nc2cc(C)n(C)n2)nc1-c1c[nH]c2c(N3Cc4cccc(Cl)c4C3=O)cccc12` [Example 273, 7-chloro-2-(3-(2-((1,5-dimethyl-1H-pyrazol-3-yl)amino)-5-methylpyrimidin-4-yl)-1H-indol-7-yl)isoindolin-1-one], `Cc1cnc(Nc2cc(C)n(C)n2)nc1-c1c[nH]c2c(N3Cc4cccc(I)c4C3=O)cccc12` [Example 275, 2-(3-(2-((1,5-dimethyl-1H-pyrazol-3-yl)amino)-5-methylpyrimidin-4-yl)-1H-indol-7-yl)-7-iodoisoindolin-1-one] is higher in IC50: less than 10 nM for the first, 10 to 100 nM for the second. The first is the more potent here.

`Cc1cnc(Nc2cc(C)n(C)n2)nc1-c1c[nH]c2c(N3Cc4cccc(N)c4C3=O)cccc12` [Example 276, 7-amino-2-(3-(2-((1,5-dimethyl-1H-pyrazol-3-yl)amino)-5-methylpyrimidin-4-yl)-1H-indol-7-yl)isoindolin-1-one] and `Cc1cnc(Nc2cc(C)n(C)n2)nc1-c1c[nH]c2c(N3Cc4cccc(Br)c4C3=O)cccc12` [Example 277, 7-bromo-2-(3-(2-((1,5-dimethyl-1H-pyrazol-3-yl)amino)-5-methylpyrimidin-4-yl)-1H-indol-7-yl)isoindolin-1-one] fall in the same range of IC50: 10 to 100 nM for the first, 10 to 100 nM for the second.

`Cc1cnc(Nc2cc(C)n(C)n2)nc1-c1c[nH]c2c(N3Cc4c(I)cccc4C3=O)cccc12` [Example 278, 2-(3-(2-((1,5-dimethyl-1H-pyrazol-3-yl)amino)-5-methylpyrimidin-4-yl)-1H-indol-7-yl)-4-iodoisoindolin-1-one] and `Cc1cnc(Nc2cc(C)n(C)n2)nc1-c1c[nH]c2c(N3Cc4c(O)cccc4C3=O)cccc12` [Example 281, 2-(3-(2-((1,5-dimethyl-1H-pyrazol-3-yl)amino)-5-methylpyrimidin-4-yl)-1H-indol-7-yl)-4-hydroxyisoindolin-1-one] cannot be ordered by IC50: less than 10 nM for the first, less than 10 nM for the second.

First: COc1ccc2c(c1)C(=O)N(c1cccc3c(-c4nc(Nc5cc(C)n(C)n5)ncc4C)c[nH]c13)C2 [Example 279, 2-(3-(2-((1,5-dimethyl-1H-pyrazol-3-yl)amino)-5-methylpyrimidin-4-yl)-1H-indol-7-yl)-6-methoxyisoindolin-1-one]
Second: COc1cc(OC)c2c(c1)C(=O)N(c1cccc3c(-c4nc(Nc5cc(C)n(C)n5)ncc4C)c[nH]c13)C2 [Example 280, 2-(3-(2-((1,5-dimethyl-1H-pyrazol-3-yl)amino)-5-methylpyrimidin-4-yl)-1H-indol-7-yl)-4,6-dimethoxyisoindolin-1-one]
The IC50 of the first is lower: 10 to 100 nM for the first, 100 to 1000 nM for the second. The first is the more potent here.

`Cc1cnc(Nc2cc(C)n(C)n2)nc1-c1c[nH]c2c(N3Cc4cccc(F)c4C3=O)cccc12` [Example 282, 2-(3-(2-((1,5-dimethyl-1H-pyrazol-3-yl)amino)-5-methylpyrimidin-4-yl)-1H-indol-7-yl)-7-fluoroisoindolin-1-one] and `Cc1cnc(Nc2cc(C)n(C)n2)nc1-c1c[nH]c2c(N3Cc4c(Br)ccc(F)c4C3=O)cccc12` [Example 283, 4-bromo-2-(3-(2-((1,5-dimethyl-1H-pyrazol-3-yl)amino)-5-methylpyrimidin-4-yl)-1H-indol-7-yl)-7-fluoroisoindolin-1-one] cannot be ordered by IC50: less than 10 nM for the first, less than 10 nM for the second.

`Cc1cnc(Nc2cc(C)n(C)n2)nc1-c1c[nH]c2c(N3Cc4cc(Br)cnc4C3=O)cccc12` [Example 285, 3-bromo-6-(3-(2-((1,5-dimethyl-1H-pyrazol-3-yl)amino)-5-methylpyrimidin-4-yl)-1H-indol-7-yl)-5,6-dihydro-7H-pyrrolo[3,4-b]pyridin-7-one] and `Cc1cnc2c(c1)CN(c1cccc3c(-c4nc(Nc5cc(C)n(C)n5)ncc4C)c[nH]c13)C2=O` [Example 287, 6-(3-(2-((1,5-dimethyl-1H-pyrazol-3-yl)amino)-5-methylpyrimidin-4-yl)-1H-indol-7-yl)-3-methyl-5,6-dihydro-7H-pyrrolo[3,4-b]pyridin-7-one] cannot be ordered by IC50: less than 10 nM for the first, less than 10 nM for the second.

For `Cc1cnc(Nc2cc(C)n(C)n2)nc1-c1c[nH]c2c(N3Cc4c(Br)cncc4C3=O)cccc12` [Example 289, 7-bromo-2-(3-(2-((1,5-dimethyl-1H-pyrazol-3-yl)amino)-5-methylpyrimidin-4-yl)-1H-indol-7-yl)-1,2-dihydro-3H-pyrrolo[3,4-c]pyridin-3-one], the IC50 was less than 10 nM.
